Measurements: patent US4062956A, “Substituted 2-(2-hydroxyethyl)tetrahydro-1,4 oxazines and quaternary salts thereof useful for treating spasmodic syndromes” (Centre Europeen de Recherches Mauvernay, priority 1975, dated 1977)

Columns and labels:
[1] = molecular target: T1, smooth muscle spasms induced by histamine (ileum of the guinea pig) (Cavia porcellus, UniProt P31389); assay: In vitro antagonism of histamine-induced smooth muscle spasm, isolated ileum of the guinea pig (technique of MAGNUS); conditions: agonist histamine, oxygen Tyrode solution, 30° C; for Kb: read-out: pA2 (converted)
T1 construct: The isolated organs were kept alive in a thermostatic oxygen Tyrode solution at 30° C; from tissue; host or cells: isolated guinea pig ileum
Experimental: The pharmacological studies of the compounds according to the invention were directed essentially to the elucidation of the antispasmodic potentialities of the cations, particularly at the level of smooth muscle spasms induced by acetylcholine, histamine and Ba^++ ions. These investigations were carried out in vitro according to the technique of MAGNUS (Pflug. Arch. Ges. Physiol. 1904, 102, 349, and 1904, 103, 515 and 525) by using as biological indicators the jejunum of the rat for the first agonist and the ileum of the guinea pig for the two other agonists. The isolated organs were kept alive in a thermostatic oxygen Tyrode solution at 30° C and their contractions were recorded.
The response curve line as a function of the dose enabled the calculation of the affinity parameters (pA2 and pD'2) of the compounds according to the invention for the different types of receptor (VAN ROSSUM J.M. - Arch. Int. Pharmacodyn. 1963, 143, 299 -330).

[2] = test system: smooth muscle spasms induced by Ba^++ ions (ileum of the guinea pig); assay: In vitro antagonism of Ba^++-induced smooth muscle spasm, isolated ileum of the guinea pig (technique of MAGNUS); conditions: agonist Ba^++, oxygen Tyrode solution, 30° C
Experimental: (§1) The pharmacological studies of the compounds according to the invention were directed essentially to the elucidation of the antispasmodic potentialities of the cations, particularly at the level of smooth muscle spasms induced by acetylcholine, histamine and Ba^++ ions. […] The isolated organs were kept alive in a thermostatic oxygen Tyrode solution at 30° C and their contractions were recorded.

[3] = molecular target: T2, smooth muscle spasms induced by acetylcholine (jejunum of the rat) (Rattus norvegicus, UniProt P08483); assay: In vitro antagonism of acetylcholine-induced smooth muscle spasm, isolated jejunum of the rat (technique of MAGNUS); conditions: agonist acetylcholine, oxygen Tyrode solution, 30° C; for Kb: read-out: pA2 (converted)
T2 construct: The isolated organs were kept alive in a thermostatic oxygen Tyrode solution at 30° C; from tissue; host or cells: isolated rat jejunum
Experimental: as §1

[4] = test system: smooth muscle spasms induced by acetylcholine, histamine and Ba^++ ions; assay: Type of antagonist exerted, overall from the isolated organ tests (acetylcholine, histamine, Ba^++); parameters: species or system rat; guinea pig; conditions: for TYPE OF ANTAGONIST EXERTED: Table I, over the three agonists; for mechanism and intensity of action compared with Tiemonium and papaverine: interpretation of Table I by principles of molecular pharmacology (ARIENS)
Experimental: as §1

[5] = test system: smooth muscle spasms induced by acetylcholine (jejunum of the rat); assay: In vitro antagonism of acetylcholine-induced smooth muscle spasm, isolated jejunum of the rat (technique of MAGNUS); conditions: agonist acetylcholine, oxygen Tyrode solution, 30° C
Experimental: as §1

T1 sequence (P31389 whole entry): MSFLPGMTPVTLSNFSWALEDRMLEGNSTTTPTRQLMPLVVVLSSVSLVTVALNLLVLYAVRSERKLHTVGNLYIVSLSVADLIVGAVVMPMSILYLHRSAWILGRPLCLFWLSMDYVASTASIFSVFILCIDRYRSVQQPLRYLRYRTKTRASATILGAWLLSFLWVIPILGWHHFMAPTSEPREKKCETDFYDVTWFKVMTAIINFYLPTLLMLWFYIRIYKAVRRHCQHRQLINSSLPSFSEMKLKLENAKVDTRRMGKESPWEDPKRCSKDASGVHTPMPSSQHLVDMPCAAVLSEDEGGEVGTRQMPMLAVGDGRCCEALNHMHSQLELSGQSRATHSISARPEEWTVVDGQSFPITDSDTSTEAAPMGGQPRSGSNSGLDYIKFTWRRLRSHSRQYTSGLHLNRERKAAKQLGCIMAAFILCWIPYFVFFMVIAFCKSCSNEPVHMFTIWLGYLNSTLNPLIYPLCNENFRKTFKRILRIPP
T2 sequence (P08483 whole entry): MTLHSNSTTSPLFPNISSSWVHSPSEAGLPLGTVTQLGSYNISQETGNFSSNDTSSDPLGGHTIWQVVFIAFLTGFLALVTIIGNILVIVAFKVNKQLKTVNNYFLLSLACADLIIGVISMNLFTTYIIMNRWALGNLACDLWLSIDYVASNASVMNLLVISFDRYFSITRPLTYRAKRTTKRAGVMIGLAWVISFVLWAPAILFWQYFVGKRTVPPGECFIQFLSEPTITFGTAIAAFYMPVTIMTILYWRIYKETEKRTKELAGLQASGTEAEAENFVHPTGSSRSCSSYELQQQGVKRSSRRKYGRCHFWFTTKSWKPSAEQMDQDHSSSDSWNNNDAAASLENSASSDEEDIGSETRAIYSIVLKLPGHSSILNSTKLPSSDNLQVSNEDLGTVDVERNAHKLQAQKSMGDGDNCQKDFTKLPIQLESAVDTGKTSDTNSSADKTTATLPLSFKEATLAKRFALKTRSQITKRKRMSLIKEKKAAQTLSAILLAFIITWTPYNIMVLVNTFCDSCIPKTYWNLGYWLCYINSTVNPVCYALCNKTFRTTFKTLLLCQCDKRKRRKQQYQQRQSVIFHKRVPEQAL

Row | Compound | Kb [1] [µM] | pA2 [2] | Kb [3] [µM] | TYPE OF ANTAGONIST EXERTED [4] | mechanism and intensity of action compared with Tiemonium and papaverine [4] | pD'2 [1] | pD'2 [2] | pD'2 [5] | pA2 [1] | pA2 [3]
1 | C[N+]1(C)CCOC(CC(O)(c2ccccc2)c2ccccc2)C1 (centres unmarked) [Compound 2] | 6.31 | 4.90 | 0.2 | Competitive | great similarity of mechanism and intensity of action between compound no 2 and Tiemonium |  |  |  |  | 
2 | C[N+]1(C)CCOC(CC(O)(c2ccc(F)cc2)c2ccc(F)cc2)C1 (centres unmarked) [Compound 7] | 10 | 5.87 | 3.47 | Dualist | a mechanism of action which brings into play at the same time the competitive mechanism of Tiemonium and the non-competitive mechanism of papaverine | 3.70 | 4.04 | 3.21 |  | 
3 | COc1ccc(Cc2nccc3cc(OC)c(OC)cc23)cc1OC [Papaverine, papaverine, reference compound] |  |  |  |  |  | 4.98 | 4.78 | 5.03 |  | 
4 | Tiemonium [reference compound] |  | 4.95 |  | Competitive |  |  |  |  | 5.21 | 7
